Measured values: ChEMBL document CHEMBL5620419, “Discovery of new Lenalidomide derivatives as potent and selective GSPT1 degraders” (Eur J Med Chem, 2023)
The source made the active and inactive calls. No cut-off for these calls is given here.

Assays:
[1] = molecular target: Protein cereblon/Eukaryotic peptide chain release factor GTP-binding subunit ERF3A (Homo sapiens, UniProt P15170+Q96SW2); experiment: (§1) PROTAC activity at CRBN/GSPT1 in human U-937 cells assessed as degradation of GSPT1 measured after 6 hrs by Western blot analysis; format: cell-based
[2] = molecular target: T1, Protein cereblon/Eukaryotic peptide chain release factor GTP-binding subunit ERF3A (Homo sapiens) (UniProt Q96SW2+P15170); experiment: as §1; format: cell-based; settings: dose <= 300.0 nM
U-937 [3] = experiment: Antiproliferative activity against human U-937 cells measured after 72 hrs by CCK-8 method; format: functional, cell-based; settings: U-937, 72 h
MOLT-4 = experiment: Antiproliferative activity against human MOLT-4 cells measured after 72 hrs by CCK-8 method; format: functional, cell-based; settings: MOLT-4, 72 h
MV4-11 = experiment: Antiproliferative activity against human MV4-11 cells measured after 72 hrs by CCK-8 method; format: functional, cell-based; settings: MV4-11, 72 h
[4] = molecular target: T1, Protein cereblon/Eukaryotic peptide chain release factor GTP-binding subunit ERF3A (Homo sapiens); experiment: PROTAC activity at CRBN/GSPT1 in human U-937 cells assessed as degradation of GSPT1 at 300 nM measured after 6 hrs by Western blot analysis relative to control; format: cell-based
[5] = molecular target: T1, Protein cereblon/Eukaryotic peptide chain release factor GTP-binding subunit ERF3A (Homo sapiens); experiment: PROTAC activity at CRBN/GSPT1 in human U-937 cells assessed as degradation of GSPT1 at 100 nM measured after 4 to 24 hrs by Western blot analysis; format: cell-based; settings: time 4-24 hrs
[6] = molecular target: T1, Protein cereblon/Eukaryotic peptide chain release factor GTP-binding subunit ERF3A (Homo sapiens); experiment: PROTAC activity at CRBN/GSPT1 in human U-937 cells assessed as half life measured upto 24 hrs in presence of cycloheximide by Western blot analysis; format: cell-based
[7] = molecular target: T1, Protein cereblon/Eukaryotic peptide chain release factor GTP-binding subunit ERF3A (Homo sapiens); experiment: PROTAC activity at CRBN/GSPT1 in human MOLT-4 cells assessed as degradation of GSPT1 at upto 300 nM by Western blot analysis; format: cell-based
[8] = molecular target: T1, Protein cereblon/Eukaryotic peptide chain release factor GTP-binding subunit ERF3A (Homo sapiens); experiment: PROTAC activity at CRBN/GSPT1 in human MV4-11 cells assessed as degradation of GSPT1 at upto 300 nM by Western blot analysis; format: cell-based
[9] = molecular target: T1, Protein cereblon/Eukaryotic peptide chain release factor GTP-binding subunit ERF3A (Homo sapiens); experiment: PROTAC activity at CRBN/GSPT1 in human U-937 cells assessed as induction of GSPT1 degradation preincubated with MG132 for 2 hrs followed by compound addition and measured after 6 hrs by Western blot analysis; format: cell-based
[10] = molecular target: T1, Protein cereblon/Eukaryotic peptide chain release factor GTP-binding subunit ERF3A (Homo sapiens); experiment: PROTAC activity at CRBN/GSPT1 in human U-937 cells assessed as induction of GSPT1 degradation preincubated with MLN4924 for 2 hrs followed by compound addition and measured after 6 hrs by Western blot analysis; format: cell-based
[11] = molecular target: T1, Protein cereblon/Eukaryotic peptide chain release factor GTP-binding subunit ERF3A (Homo sapiens); experiment: PROTAC activity at CRBN/GSPT1 in human U-937 cells assessed as increase in ubiquitination of GSPT1 at 100 nM preincubated with MG-132 for 2 hrs followed by compound treatment and measured after 24 hrs by coimmunoprecipitation analysis; format: cell-based
[12] = molecular target: Cereblon/Ikaros (Homo sapiens) (UniProt Q96SW2+Q13422); experiment: PROTAC activity at CRBN/IKZF1 in human U-937 cells at upto 300 nM by Western blot analysis; format: cell-based
[13] = molecular target: Protein cereblon/Zinc finger protein Aiolos (Homo sapiens) (UniProt Q96SW2+Q9UKT9); experiment: PROTAC activity at CRBN/IKZF3 in human U-937 cells at upto 300 nM; format: cell-based
[14] = molecular target: Cereblon/Casein kinase I alpha (Homo sapiens) (UniProt P48729+Q96SW2); experiment: PROTAC activity at CRBN/CK1alpha in human U-937 cells at upto 300 nM by Western blot analysis; format: cell-based
U-937 [15] = experiment: Induction of cell cycle arrest in human U-937 cells assessed as accumulation of cells at G0/G1 phase at 10 nM measured after 24 hrs by propidium iodide staining based flow cytometry analysis (reference value: 61.09%); format: functional
U-937 [16] = experiment: Induction of cell cycle arrest in human U-937 cells assessed as accumulation of cells at G0/G1 phase at 30 nM measured after 24 hrs by propidium iodide staining based flow cytometry analysis (reference value: 61.09%); format: functional
U-937 [17] = experiment: Induction of cell cycle arrest in human U-937 cells assessed as accumulation of cells at G0/G1 phase at 100 nM measured after 24 hrs by propidium iodide staining based flow cytometry analysis (reference value: 61.09%); format: functional
U-937 [18] = experiment: Induction of cell cycle arrest in human U-937 cells assessed as accumulation of cells at S phase at 10 nM measured after 24 hrs by propidium iodide staining based flow cytometry analysis (reference value: 6.38%); format: functional
U-937 [19] = experiment: Induction of cell cycle arrest in human U-937 cells assessed as accumulation of cells at S phase at 30 nM measured after 24 hrs by propidium iodide staining based flow cytometry analysis (reference value: 6.38%); format: functional
U-937 [20] = experiment: Induction of cell cycle arrest in human U-937 cells assessed as accumulation of cells at S phase at 100 nM measured after 24 hrs by propidium iodide staining based flow cytometry analysis (reference value: 6.38%); format: functional
U-937 [21] = experiment: Induction of cell cycle arrest in human U-937 cells assessed as accumulation of cells at G2/M phase at 10 nM measured after 24 hrs by propidium iodide staining based flow cytometry analysis (reference value: 32.33%); format: functional
U-937 [22] = experiment: Induction of cell cycle arrest in human U-937 cells assessed as accumulation of cells at G2/M phase at 30 nM measured after 24 hrs by propidium iodide staining based flow cytometry analysis (reference value: 32.33%); format: functional
U-937 [23] = experiment: Induction of cell cycle arrest in human U-937 cells assessed as accumulation of cells at G2/M phase at 100 nM measured after 24 hrs by propidium iodide staining based flow cytometry analysis (reference value: 32.33%); format: functional
U-937 [24] = experiment: Induction of apoptosis in human U-937 cells assessed as viable cells at 10 nM measured after 24 hr by Annexin V-FITC/7AAD staining based flow cytometry (reference value: 93.55%); format: functional; settings: read-out: Activity
U-937 [25] = experiment: Induction of apoptosis in human U-937 cells assessed as viable cells at 30 nM measured after 24 hr by Annexin V-FITC/7AAD staining based flow cytometry (reference value: 93.55%); format: functional; settings: read-out: Activity
U-937 [26] = experiment: Induction of apoptosis in human U-937 cells assessed as viable cells at 100 nM measured after 24 hr by Annexin V-FITC/7AAD staining based flow cytometry (reference value: 93.55%); format: functional; settings: read-out: Activity
U-937 [27] = experiment: Induction of apoptosis in human U-937 cells assessed as early apoptotic cells at 10 nM measured after 24 hr by Annexin V-FITC/7AAD staining based flow cytometry (reference value: 1.44%); format: functional
U-937 [28] = experiment: Induction of apoptosis in human U-937 cells assessed as early apoptotic cells at 30 nM measured after 24 hr by Annexin V-FITC/7AAD staining based flow cytometry (reference value: 1.44%); format: functional
U-937 [29] = experiment: Induction of apoptosis in human U-937 cells assessed as early apoptotic cells at 100 nM measured after 24 hr by Annexin V-FITC/7AAD staining based flow cytometry (reference value: 1.44%); format: functional
U-937 [30] = experiment: Induction of apoptosis in human U-937 cells assessed as late apoptotic cells at 10 nM measured after 24 hr by Annexin V-FITC/7AAD staining based flow cytometry (reference value: 1.49%); format: functional
U-937 [31] = experiment: Induction of apoptosis in human U-937 cells assessed as late apoptotic cells at 30 nM measured after 24 hr by Annexin V-FITC/7AAD staining based flow cytometry (reference value: 1.49%); format: functional
U-937 [32] = experiment: Induction of apoptosis in human U-937 cells assessed as late apoptotic cells at 100 nM measured after 24 hr by Annexin V-FITC/7AAD staining based flow cytometry (reference value: 1.49%); format: functional
U-937 [33] = experiment: Induction of apoptosis in human U-937 cells assessed as necrotic cells at 10 nM measured after 24 hr by Annexin V-FITC/7AAD staining based flow cytometry (reference value: 3.52%); format: functional
U-937 [34] = experiment: Induction of apoptosis in human U-937 cells assessed as necrotic cells at 30 nM measured after 24 hr by Annexin V-FITC/7AAD staining based flow cytometry (reference value: 3.52%); format: functional
U-937 [35] = experiment: Induction of apoptosis in human U-937 cells assessed as necrotic cells at 100 nM measured after 24 hr by Annexin V-FITC/7AAD staining based flow cytometry (reference value: 3.52%); format: functional
U-937 [36] = experiment: Downregulation of CDK6 level in human U-937 cells measured after 24 hrs by Western blot analysis; format: functional, cell-based; settings: dose 10-100 nM
U-937 [37] = experiment: Downregulation of cyclin B1 level in human U-937 cells measured after 24 hrs by Western blot analysis; format: functional, cell-based; settings: dose 10-100 nM
U-937 [38] = experiment: Upregulation of cleaved caspase-3 level in human U-937 cells measured after 24 hrs by Western blot analysis; format: functional, cell-based; settings: dose 10-100 nM
U-937 [39] = experiment: Upregulation of caspase-9 level in human U-937 cells measured after 24 hrs by Western blot analysis; format: functional, cell-based; settings: dose 10-100 nM
[40] = Downregulation of K1C10 level in human U-937 cells assessed as fold change at 0.1 uM measured after 6 hrs; format: functional
[41] = Downregulation of K2C1 level in human U-937 cells assessed as fold change at 0.1 uM measured after 6 hrs; format: functional
[42] = Downregulation of AMPN level in human U-937 cells assessed as fold change at 0.1 uM measured after 6 hrs; format: functional
[43] = Downregulation of RNT2 level in human U-937 cells assessed as fold change at 0.1 uM measured after 6 hrs; format: functional
[44] = Downregulation of AIMP2 level in human U-937 cells assessed as fold change at 0.1 uM measured after 6 hrs; format: functional
[45] = Downregulation of SYIC level in human U-937 cells assessed as fold change at 0.1 uM measured after 6 hrs; format: functional
[46] = Downregulation of TIM9 level in human U-937 cells assessed as fold change at 0.1 uM measured after 6 hrs; format: functional
[47] = Downregulation of SCAM2 level in human U-937 cells assessed as fold change at 0.1 uM measured after 6 hrs; format: functional
[48] = Downregulation of SEC13 level in human U-937 cells assessed as fold change at 0.1 uM measured after 6 hrs; format: functional
[49] = Downregulation of SRP72 level in human U-937 cells assessed as fold change at 0.1 uM measured after 6 hrs; format: functional
[50] = Downregulation of GSPT1 level in human U-937 cells assessed as fold change at 0.1 uM measured after 6 hrs; format: functional
[51] = Cmax in oral dosed Sprague-Dawley rat; format: ADME, organism-based; settings: in vivo
[52] = AUC (0 to t) in oral dosed Sprague-Dawley rat; format: ADME, organism-based; settings: in vivo
[53] = AUC (0 to t) in ip dosed Sprague-Dawley rat; format: ADME, organism-based; settings: in vivo
[54] = Cmax in ip dosed Sprague-Dawley rat; format: ADME, organism-based; settings: in vivo
[55] = Half life in ip dosed Sprague-Dawley rat; format: ADME, organism-based; settings: in vivo

T1 sequence (P15170 whole entry, looked up): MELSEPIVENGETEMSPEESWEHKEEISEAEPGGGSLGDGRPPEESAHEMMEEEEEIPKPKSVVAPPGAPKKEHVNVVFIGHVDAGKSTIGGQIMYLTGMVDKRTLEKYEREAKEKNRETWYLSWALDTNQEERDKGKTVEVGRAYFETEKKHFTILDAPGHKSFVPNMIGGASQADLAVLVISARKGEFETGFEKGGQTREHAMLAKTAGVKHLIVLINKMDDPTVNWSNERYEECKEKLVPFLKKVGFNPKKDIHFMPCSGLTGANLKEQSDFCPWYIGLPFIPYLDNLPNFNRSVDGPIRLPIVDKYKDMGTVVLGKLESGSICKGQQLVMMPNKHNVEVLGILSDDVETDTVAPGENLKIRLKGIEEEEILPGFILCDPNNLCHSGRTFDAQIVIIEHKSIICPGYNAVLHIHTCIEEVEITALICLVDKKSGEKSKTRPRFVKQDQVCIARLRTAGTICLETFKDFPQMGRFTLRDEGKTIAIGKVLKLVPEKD
T1 sequence (Q96SW2 whole entry, looked up): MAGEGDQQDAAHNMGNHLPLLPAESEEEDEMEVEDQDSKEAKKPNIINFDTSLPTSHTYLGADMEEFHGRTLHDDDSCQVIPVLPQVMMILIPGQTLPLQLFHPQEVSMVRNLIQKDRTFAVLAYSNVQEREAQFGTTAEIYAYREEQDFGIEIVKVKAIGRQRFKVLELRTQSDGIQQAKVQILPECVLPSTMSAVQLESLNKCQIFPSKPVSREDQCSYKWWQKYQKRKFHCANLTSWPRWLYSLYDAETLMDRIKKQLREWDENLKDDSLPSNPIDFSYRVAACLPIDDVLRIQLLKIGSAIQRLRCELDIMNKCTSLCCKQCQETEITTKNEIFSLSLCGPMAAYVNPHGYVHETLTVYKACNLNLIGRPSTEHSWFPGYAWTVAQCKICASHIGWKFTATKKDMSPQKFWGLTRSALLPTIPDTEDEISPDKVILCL
Protein cereblon/Eukaryotic peptide chain release factor GTP-binding subunit ERF3A, sequence (Q96SW2 whole entry): as the sequence (Q96SW2 whole entry, looked up) above
Protein cereblon/Eukaryotic peptide chain release factor GTP-binding subunit ERF3A, sequence (P15170 whole entry): as the sequence (P15170 whole entry, looked up) above
Cereblon/Casein kinase I alpha (Homo sapiens), sequence (P48729 2-337 limits assumed): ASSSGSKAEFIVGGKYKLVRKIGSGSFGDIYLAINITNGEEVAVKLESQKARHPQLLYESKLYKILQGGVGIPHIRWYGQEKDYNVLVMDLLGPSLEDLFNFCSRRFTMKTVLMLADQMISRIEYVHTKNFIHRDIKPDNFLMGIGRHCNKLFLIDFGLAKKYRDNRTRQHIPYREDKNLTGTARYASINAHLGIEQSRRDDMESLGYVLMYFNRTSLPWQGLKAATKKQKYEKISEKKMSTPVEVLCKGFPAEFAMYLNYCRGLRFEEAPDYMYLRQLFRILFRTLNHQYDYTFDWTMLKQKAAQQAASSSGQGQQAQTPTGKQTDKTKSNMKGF
Cereblon/Casein kinase I alpha (Homo sapiens), sequence (Q96SW2 whole entry partner): as the sequence (Q96SW2 whole entry, looked up) above
Protein cereblon/Zinc finger protein Aiolos (Homo sapiens), sequence (Q96SW2 whole entry, looked up): as above
Protein cereblon/Zinc finger protein Aiolos (Homo sapiens), sequence (Q9UKT9 whole entry, looked up): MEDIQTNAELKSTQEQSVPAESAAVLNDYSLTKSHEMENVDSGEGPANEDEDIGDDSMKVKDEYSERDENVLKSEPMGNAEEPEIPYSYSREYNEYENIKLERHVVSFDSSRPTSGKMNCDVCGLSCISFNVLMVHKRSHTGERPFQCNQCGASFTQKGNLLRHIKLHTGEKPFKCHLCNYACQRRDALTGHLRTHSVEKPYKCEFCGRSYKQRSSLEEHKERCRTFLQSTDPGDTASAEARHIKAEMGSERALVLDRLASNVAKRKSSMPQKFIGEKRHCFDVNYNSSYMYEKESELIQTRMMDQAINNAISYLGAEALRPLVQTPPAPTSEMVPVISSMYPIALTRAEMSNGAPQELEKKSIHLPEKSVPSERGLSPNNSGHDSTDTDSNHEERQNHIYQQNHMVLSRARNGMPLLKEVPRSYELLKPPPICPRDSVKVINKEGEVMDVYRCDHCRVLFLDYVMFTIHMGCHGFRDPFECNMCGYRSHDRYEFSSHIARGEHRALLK

Cc1c(Cl)cc(NC(=O)CCc2ccc3c(c2)C(=O)N(C2CCC(=O)NC2=O)C3)cc1CN1CCN(C2COC2)CC1 (stereo not drawn)
EC50 [1]: 220 nM

COCCN(C)Cc1cc(NC(=O)CCc2ccc3c(c2)C(=O)N(C2CCC(=O)NC2=O)C3)cc(Cl)c1C (stereo not drawn)
Activity [2]: Dose-Dependent Effect
EC50 [1]: 35 nM
IC50 (U-937 [3]): 19 nM
IC50 (MOLT-4): 6 nM
IC50 (MV4-11): 27 nM
Emax [4]: 81.7%
Activity [5]: Active
T1/2 [6]: 6.3 h
Activity [7]: Active
Activity [8]: Active
Activity [9]: inactive
Activity [10]: inactive
Activity [11]: Active
Activity [12]: inactive
Activity [13]: inactive
Activity [14]: inactive
Activity (U-937 [15]): 50.22%
Activity (U-937 [16]): 63.89%
Activity (U-937 [17]): 71.09%
Activity (U-937 [18]): 8.87%
Activity (U-937 [19]): 9.99%
Activity (U-937 [20]): 6.73%
Activity (U-937 [21]): 31.72%
Activity (U-937 [22]): 26.07%
Activity (U-937 [23]): 20.68%
viability at 0.01 µM (U-937 [24]): 93.2%
viability at 0.03 µM (U-937 [25]): 65.5%
viability at 0.1 µM (U-937 [26]): 44.9%
Activity (U-937 [27]): 1.9%
Activity (U-937 [28]): 14.2%
Activity (U-937 [29]): 23.01%
Activity (U-937 [30]): 2.34%
Activity (U-937 [31]): 14.45%
Activity (U-937 [32]): 27.48%
Activity (U-937 [33]): 2.73%
Activity (U-937 [34]): 5.84%
Activity (U-937 [35]): 5.5%
Activity (U-937 [36]): Dose-Dependent Effect
Activity (U-937 [37]): Dose-Dependent Effect
Activity (U-937 [38]): Dose-Dependent Effect
Activity (U-937 [39]): Dose-Dependent Effect
log(activity) [40]: -9.04
log(activity) [41]: -5.03
log(activity) [42]: -3.63
log(activity) [43]: -3.36
log(activity) [44]: -3.32
log(activity) [45]: -3.32
log(activity) [46]: -3.32
log(activity) [47]: -3.32
log(activity) [48]: -3.32
log(activity) [49]: -3.32
log(activity) [50]: -3.32
Cmax [51]: 671 ng/mL
AUC(0-t) [52]: 1050 ng·h/mL
AUC(0-t) [53]: 8160 ng·h/mL
Cmax [54]: 4270 ng/mL
half-life [55]: 1.25 h
